# Measured values published in publication PMC6481345, “A novel anti-melanoma SRC-family kinase inhibitor” (Oncotarget, 2019).
# Key:
# pp38 T180/Y182 = test: Western blot, phospho-p38; type: cell-based, human; details: YUSIV melanoma cells
# Description: We used standard techniques to identify changes in intracellular signaling in response to various treatments. Briefly, melanoma cells were incubated with test compounds, using DMSO as a control, collected by scraping on ice, and lysed in RIPA buffer supplemented with protease and phosphatase inhibitors (MA #78428, and #78425, respectively, Thermo Fisher Scientific, Waltham, MA). Protein concentrations were measured with the BioRad kit (Bio-Rad Laboratories, Hercules, CA), SDS sample buffer was added, extracts were heated at 95°C, sonicated and centrifuged. Cell extracts (20 µg/lane) were fractionated in 3%–8% or 4–12 % tris-acetate gel (NP0006, NuPAGE Life Technologies). […]
# BTK = target: T1, BTK (Homo sapiens, UniProt Q06187); test: Radioisotope filter activity assay, recombinant kinase; type: biochemical; details: 10 point dose response, 10 µM ATP
# T1 construct: purchased Reaction Biology Corporation
# Description: (§1) The effect of SAB298 on a panel of 36 recombinant kinases, was screed with the radioisotope filter binding assay employing 10 concentrations of the compound with 10 µM ATP (Reaction Biology Corporation, Malvern, PA). In addition, we tested the endogenous kinome response to SAB298 (0.05 µM, 0.5 µM and 5 µM) in lysates from two melanoma cell lines (YUSIV and YUSIK) employing the KiNativ® platform (ActivX Biosciences Inc., La Jolla, CA). KiNativ® is a robust, high performance mass spectrometry (LC-MS^2) assay that uses biotinylated probes to measure relevant changes in the affinity to the ATP-binding sites of 205 native kinases as a function of cellular context. We also validated SAB298 effect on the activity of SRC-family kinases by probing for phosphorylated Y416, the marker of activated SFKs, with anti-IEDNEpYTAR antibodies (also known as Y419, #2101, Cell Signaling Technology, Beverly, MA). In some cases the cells were incubated overnight with 20 µM proteasome inhibitor MG-132 (CAS 133407-82-6, Millipore Sigma, Burlington, MA) to rescue degradation.
# (§2) Supplemntary Table 3: Radioisotope filter activity assay Tests for SAB298 target protein
# (§3) *These are results from 10 point dose response test employed with 10 µM ATP. […]
# (§4) SRC TRCN0000195339 3ʹUTR […]
# (§5) YES TRCN0000001611 CDS […]
# (§6) FYN TRCN0000003099 CDS […]
# (§7) LY N TRCN0000230901 CDS […]
# ABL1 = target: T2, ABL1 (Homo sapiens, UniProt P00519); test: as above; type: biochemical; details: 10 point dose response, 10 µM ATP
# T2 construct: purchased Reaction Biology Corporation
# Description: as §1, §2, §3, §4, §5, §6, §7
# BRK = target: T3, BRK (Homo sapiens, UniProt Q13882); test: as above; type: biochemical; details: 10 point dose response, 10 µM ATP
# T3 construct: purchased Reaction Biology Corporation
# Description: as §1, §2, §3, §4, §5, §6, §7
# WEE1 = target: T4, WEE1 (Homo sapiens, UniProt P30291); test: as above; type: biochemical; details: 10 point dose response, 10 µM ATP
# T4 construct: purchased Reaction Biology Corporation
# Description: as §1, §2, §3, §4, §5, §6, §7
# ARAF = target: T5, ARAF (Homo sapiens, UniProt P10398); test: as above; type: biochemical; details: 10 point dose response, 10 µM ATP
# T5 construct: purchased Reaction Biology Corporation
# Description: as §1, §2, §3, §4, §5, §6, §7
# BRAF = target: T6, BRAF (Homo sapiens, UniProt P15056); test: as above; type: biochemical; details: 10 point dose response, 10 µM ATP
# T6 construct: purchased Reaction Biology Corporation
# Description: as §1, §2, §3, §4, §5, §6, §7
# FLT3 = target: T7, FLT3 (Homo sapiens, UniProt P36888); test: as above; type: biochemical; details: 10 point dose response, 10 µM ATP
# T7 construct: purchased Reaction Biology Corporation
# Description: as §1, §2, §3, §4, §5, §6, §7
# BLK = target: T8, BLK (Homo sapiens, UniProt P51451); test: as above; type: biochemical; details: 10 point dose response, 10 µM ATP
# T8 construct: purchased Reaction Biology Corporation
# Description: as §1, §2, §3, §4, §5, §6, §7
# FGR = target: T9, FGR (Homo sapiens, UniProt P09769); test: as above; type: biochemical; details: 10 point dose response, 10 µM ATP
# T9 construct: purchased Reaction Biology Corporation
# Description: as §1, §2, §3, §4, §5, §6, §7
# CDK4/Cyclin D1 = target: T10, CDK4/Cyclin D1 (Homo sapiens, UniProt P11802); test: as above; type: biochemical; details: 10 point dose response, 10 µM ATP
# T10 construct: purchased Reaction Biology Corporation
# Description: as §1, §2, §3, §4, §5, §6, §7
# RAF1 = target: T11, RAF1 (Homo sapiens, UniProt P04049); test: as above; type: biochemical; details: 10 point dose response, 10 µM ATP
# T11 construct: purchased Reaction Biology Corporation
# Description: as §1, §2, §3, §4, §5, §6, §7
# MEK1 = target: T12, MEK1 (Homo sapiens, UniProt Q02750); test: KiNativ in situ kinase profiling in melanoma cell lysates; type: binding; details: MEK1 in YUSIV lysate; 3-point dose response
# T12 construct: we tested the endogenous kinome response to SAB298; host or cells: YUSIV or YUSIK melanoma cell lysate
# Description: as §1
# EGFR = target: T13, EGFR (Homo sapiens, UniProt P00533); test: as above; type: binding; details: 3-point dose response
# T13 construct: we tested the endogenous kinome response to SAB298; host or cells: YUSIV and YUSIK melanoma cell lysates
# Description: as §1
# RIPK2 = target: T14, RIPK2 (Homo sapiens, UniProt O43353); test: as above; type: binding; details: RIPK2 in YUSIK lysate; 3-point dose response
# T14 construct: we tested the endogenous kinome response to SAB298; host or cells: YUSIV or YUSIK melanoma cell lysate
# Description: as §1
# ERBB3 = target: T15, ERBB3 (Homo sapiens, UniProt P21860); test: as above; type: binding; details: 3-point dose response
# T15 construct: we tested the endogenous kinome response to SAB298; host or cells: YUSIV and YUSIK melanoma cell lysates
# Description: as §1
# MEK5 = target: T16, MEK5 (Homo sapiens, UniProt Q13163); test: as above; type: binding; details: 3-point dose response
# T16 construct: we tested the endogenous kinome response to SAB298; host or cells: YUSIV and YUSIK melanoma cell lysates
# Description: as §1
# mTOR = target: T17, mTOR (Homo sapiens, UniProt P42345); test: as above; type: binding; details: 3-point dose response
# T17 construct: we tested the endogenous kinome response to SAB298; host or cells: YUSIV and YUSIK melanoma cell lysates
# Description: as §1
# T15 sequence (P21860 20-1342): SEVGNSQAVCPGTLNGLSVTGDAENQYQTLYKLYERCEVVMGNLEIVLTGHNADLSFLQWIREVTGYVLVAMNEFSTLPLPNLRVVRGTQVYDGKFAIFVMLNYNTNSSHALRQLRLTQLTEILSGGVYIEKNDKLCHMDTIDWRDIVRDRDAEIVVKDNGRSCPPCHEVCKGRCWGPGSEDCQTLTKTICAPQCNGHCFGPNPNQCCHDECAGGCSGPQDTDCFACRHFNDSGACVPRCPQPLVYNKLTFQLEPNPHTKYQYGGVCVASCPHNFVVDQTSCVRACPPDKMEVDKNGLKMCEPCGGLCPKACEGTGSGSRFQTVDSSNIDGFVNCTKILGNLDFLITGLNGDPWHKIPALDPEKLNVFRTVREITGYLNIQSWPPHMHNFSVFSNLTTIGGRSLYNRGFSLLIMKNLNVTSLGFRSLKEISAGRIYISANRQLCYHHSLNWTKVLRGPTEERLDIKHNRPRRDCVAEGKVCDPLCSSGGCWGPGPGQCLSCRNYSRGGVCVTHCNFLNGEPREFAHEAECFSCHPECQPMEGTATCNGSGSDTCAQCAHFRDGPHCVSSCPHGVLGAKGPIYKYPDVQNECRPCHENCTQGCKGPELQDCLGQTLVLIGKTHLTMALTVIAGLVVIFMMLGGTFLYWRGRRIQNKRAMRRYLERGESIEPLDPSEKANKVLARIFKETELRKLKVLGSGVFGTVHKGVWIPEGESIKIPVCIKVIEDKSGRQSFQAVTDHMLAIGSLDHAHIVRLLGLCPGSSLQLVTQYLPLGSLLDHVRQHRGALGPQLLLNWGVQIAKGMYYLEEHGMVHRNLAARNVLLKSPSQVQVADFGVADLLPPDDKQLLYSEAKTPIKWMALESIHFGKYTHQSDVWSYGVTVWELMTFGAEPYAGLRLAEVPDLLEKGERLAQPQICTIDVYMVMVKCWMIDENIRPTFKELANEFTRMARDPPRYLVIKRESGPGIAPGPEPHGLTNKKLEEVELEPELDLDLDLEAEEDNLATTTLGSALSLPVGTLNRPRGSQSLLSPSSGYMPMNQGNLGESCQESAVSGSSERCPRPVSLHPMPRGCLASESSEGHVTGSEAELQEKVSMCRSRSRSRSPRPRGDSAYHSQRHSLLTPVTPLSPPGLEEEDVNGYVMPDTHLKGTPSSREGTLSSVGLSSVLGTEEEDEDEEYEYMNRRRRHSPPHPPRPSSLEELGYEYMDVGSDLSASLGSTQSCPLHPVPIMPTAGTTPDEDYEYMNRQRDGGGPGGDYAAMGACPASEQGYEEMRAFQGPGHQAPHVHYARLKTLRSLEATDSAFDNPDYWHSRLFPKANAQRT
# T16 sequence (Q13163 whole entry): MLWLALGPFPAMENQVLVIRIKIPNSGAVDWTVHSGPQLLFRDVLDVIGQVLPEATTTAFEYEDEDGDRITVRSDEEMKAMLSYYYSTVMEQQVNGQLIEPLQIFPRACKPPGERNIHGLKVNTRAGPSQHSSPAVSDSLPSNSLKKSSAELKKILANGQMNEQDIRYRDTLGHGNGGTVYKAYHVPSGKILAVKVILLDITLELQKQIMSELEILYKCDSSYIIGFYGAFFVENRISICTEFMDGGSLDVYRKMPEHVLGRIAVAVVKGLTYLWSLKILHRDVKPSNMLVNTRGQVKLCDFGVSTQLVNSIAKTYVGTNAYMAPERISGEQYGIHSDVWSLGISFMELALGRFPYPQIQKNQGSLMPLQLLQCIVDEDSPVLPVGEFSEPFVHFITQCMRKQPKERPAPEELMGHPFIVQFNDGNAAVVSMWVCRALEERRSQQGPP
# T13 sequence (P00533 25-1210): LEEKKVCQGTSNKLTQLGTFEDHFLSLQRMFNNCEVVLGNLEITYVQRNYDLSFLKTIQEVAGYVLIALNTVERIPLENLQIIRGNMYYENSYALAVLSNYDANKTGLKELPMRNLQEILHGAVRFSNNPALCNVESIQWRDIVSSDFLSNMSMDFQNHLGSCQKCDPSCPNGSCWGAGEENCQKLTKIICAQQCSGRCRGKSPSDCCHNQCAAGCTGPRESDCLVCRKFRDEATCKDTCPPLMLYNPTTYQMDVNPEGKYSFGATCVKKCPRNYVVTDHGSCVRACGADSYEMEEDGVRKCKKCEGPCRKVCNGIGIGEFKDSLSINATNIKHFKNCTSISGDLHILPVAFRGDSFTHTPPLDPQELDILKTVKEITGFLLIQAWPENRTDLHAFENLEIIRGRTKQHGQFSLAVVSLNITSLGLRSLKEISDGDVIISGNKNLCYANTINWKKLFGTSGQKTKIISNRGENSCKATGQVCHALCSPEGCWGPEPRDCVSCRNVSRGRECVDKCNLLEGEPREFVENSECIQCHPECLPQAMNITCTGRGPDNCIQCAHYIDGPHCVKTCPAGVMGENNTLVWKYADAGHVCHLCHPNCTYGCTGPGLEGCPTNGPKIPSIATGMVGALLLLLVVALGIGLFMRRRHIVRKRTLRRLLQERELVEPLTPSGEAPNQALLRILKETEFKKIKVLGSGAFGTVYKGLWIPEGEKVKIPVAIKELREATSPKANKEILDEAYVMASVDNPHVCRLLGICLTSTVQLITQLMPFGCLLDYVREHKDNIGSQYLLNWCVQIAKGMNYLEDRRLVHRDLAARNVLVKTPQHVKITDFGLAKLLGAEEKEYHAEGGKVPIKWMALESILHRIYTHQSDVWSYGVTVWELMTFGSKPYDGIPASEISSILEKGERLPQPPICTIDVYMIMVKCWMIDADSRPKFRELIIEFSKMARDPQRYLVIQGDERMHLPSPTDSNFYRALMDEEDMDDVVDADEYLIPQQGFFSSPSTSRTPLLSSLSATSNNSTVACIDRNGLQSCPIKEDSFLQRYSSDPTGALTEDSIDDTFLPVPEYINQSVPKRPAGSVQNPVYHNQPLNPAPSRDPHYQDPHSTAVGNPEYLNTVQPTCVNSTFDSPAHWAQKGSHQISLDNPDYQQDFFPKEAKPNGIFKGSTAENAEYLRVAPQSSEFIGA
# T4 sequence (P30291 whole entry): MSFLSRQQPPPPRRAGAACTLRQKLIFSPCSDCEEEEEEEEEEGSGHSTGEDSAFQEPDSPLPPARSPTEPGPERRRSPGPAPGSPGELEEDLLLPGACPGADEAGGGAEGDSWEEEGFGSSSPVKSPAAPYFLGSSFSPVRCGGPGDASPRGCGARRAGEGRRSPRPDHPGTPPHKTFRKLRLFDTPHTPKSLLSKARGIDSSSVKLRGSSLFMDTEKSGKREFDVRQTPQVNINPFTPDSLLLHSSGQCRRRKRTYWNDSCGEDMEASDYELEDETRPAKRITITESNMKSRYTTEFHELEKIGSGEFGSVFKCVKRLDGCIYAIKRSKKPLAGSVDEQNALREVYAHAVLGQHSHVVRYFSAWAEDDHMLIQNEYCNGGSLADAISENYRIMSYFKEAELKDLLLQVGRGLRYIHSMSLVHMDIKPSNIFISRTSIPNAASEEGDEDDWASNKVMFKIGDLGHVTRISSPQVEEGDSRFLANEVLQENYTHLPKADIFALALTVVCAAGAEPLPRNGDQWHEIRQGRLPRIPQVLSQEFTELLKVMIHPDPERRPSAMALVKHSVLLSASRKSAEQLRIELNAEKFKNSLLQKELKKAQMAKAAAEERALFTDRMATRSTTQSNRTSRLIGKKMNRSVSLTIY
# T6 sequence (P15056 whole entry): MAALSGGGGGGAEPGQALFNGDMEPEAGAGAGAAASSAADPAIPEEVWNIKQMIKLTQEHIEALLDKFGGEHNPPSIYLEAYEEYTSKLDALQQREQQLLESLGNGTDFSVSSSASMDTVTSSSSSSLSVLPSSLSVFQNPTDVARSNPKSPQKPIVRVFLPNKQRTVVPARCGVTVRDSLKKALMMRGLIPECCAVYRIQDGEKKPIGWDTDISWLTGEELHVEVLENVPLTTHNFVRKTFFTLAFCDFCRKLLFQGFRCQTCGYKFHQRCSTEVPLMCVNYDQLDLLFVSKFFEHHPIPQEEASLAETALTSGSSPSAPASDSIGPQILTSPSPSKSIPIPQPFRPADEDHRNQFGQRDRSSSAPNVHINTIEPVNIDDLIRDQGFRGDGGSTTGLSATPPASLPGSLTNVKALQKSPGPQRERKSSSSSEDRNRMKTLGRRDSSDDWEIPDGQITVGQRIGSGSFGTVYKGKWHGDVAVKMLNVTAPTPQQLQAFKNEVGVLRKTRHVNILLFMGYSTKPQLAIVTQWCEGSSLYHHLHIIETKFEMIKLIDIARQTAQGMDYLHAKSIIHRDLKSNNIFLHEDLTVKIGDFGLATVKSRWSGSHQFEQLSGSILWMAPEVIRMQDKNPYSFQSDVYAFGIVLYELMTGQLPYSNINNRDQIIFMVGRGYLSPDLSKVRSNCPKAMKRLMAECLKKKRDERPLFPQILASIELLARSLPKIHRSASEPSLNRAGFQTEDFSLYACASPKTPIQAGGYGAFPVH
# T1 sequence (Q06187 whole entry): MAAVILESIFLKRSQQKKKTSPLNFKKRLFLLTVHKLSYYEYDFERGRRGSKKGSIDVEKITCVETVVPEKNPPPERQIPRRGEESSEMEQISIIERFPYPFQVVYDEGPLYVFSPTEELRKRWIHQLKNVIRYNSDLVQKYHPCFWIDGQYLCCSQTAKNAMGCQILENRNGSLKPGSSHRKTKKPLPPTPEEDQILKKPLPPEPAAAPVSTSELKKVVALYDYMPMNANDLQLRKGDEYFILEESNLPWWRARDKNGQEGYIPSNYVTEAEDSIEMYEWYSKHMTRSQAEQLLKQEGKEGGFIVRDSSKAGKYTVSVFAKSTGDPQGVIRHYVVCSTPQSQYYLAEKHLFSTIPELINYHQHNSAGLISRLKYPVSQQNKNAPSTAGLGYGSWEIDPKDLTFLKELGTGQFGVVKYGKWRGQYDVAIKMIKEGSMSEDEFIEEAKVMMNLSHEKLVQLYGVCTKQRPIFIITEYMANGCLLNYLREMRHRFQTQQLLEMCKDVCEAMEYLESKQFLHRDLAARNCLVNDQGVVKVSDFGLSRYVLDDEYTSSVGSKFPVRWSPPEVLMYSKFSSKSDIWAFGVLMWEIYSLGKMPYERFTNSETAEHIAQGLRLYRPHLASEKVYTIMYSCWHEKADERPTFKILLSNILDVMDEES
smiles,measurement,setting,value
"Nc1ncnc2c1c(-c1ccc(Oc3ccccc3)cc1)nn2C[C@@H]1SSC[C@@H]1O [SAB298, (3S, 4S)-3-((4-amino-3-(4-phenoxyphenyl)-1H-pyrazolo[3,4-d]pyrimidin-1-yl)methyl)-1,2-dithiolan-4-ol]",pp38 T180/Y182 level,pp38 T180/Y182,induced p38 T180/Y182 phosphorylation
same,IC50,BTK,78 nM
same,IC50,ABL1,4140 nM
same,IC50,BRK,35.5 nM
same,IC50,WEE1,> 10000 nM
same,IC50,ARAF,1200 nM
same,IC50,BRAF,> 10000 nM
same,IC50,FLT3,71 nM
same,IC50,BLK,6.5 nM
same,IC50,FGR,7.8 nM
same,IC50,CDK4/Cyclin D1,> 10000 nM
same,IC50,RAF1,2800 nM
same,IC50,MEK1,2900 nM
same,IC50,EGFR; EGFR in YUSIK lysate,530 nM
same,IC50,EGFR; EGFR in YUSIV lysate,1300 nM
same,IC50,RIPK2,20 nM
same,IC50,ERBB3; ERBB3 in YUSIK lysate,240 nM
same,IC50,ERBB3; ERBB3 in YUSIV lysate,290 nM
same,IC50,MEK5; MEK5 in YUSIK lysate,1500 nM
same,IC50,MEK5; MEK5 in YUSIV lysate,370 nM
same,IC50,mTOR; mTOR in YUSIK lysate,2000 nM
same,IC50,mTOR; mTOR in YUSIV lysate,1300 nM
